Reference: PMC12692861, “Biotin-Linked Ursolic Acid Conjugates as Selective Anticancer Agents and Target-Identification Tools for Cancer Therapy” (Molecules, 2025)

Tests used:
[1] = biological target: Poly(U)-binding-splicing factor 60 (PUF60) (Homo sapiens, UniProt Q9UHX1); experiment: Streptavidin pulldown proteomics (LC-MS/MS), 5637 cells; conditions: 5637, 50 µM
Description: (§1) We used proteomics to identify potential molecular targets of 5c. A pulldown assay with streptavidin-agarose-coated magnetic beads was performed. Briefly, 5637 and MB49 cells were incubated with 50 µM 5c for 10 min and 1 h. After incubation, the cells were rinsed three times with cold phosphate-buffered saline (PBS), and cell lysates were prepared and clarified by centrifugation to remove cellular debris, including nuclei. The clarified lysates were incubated with streptavidin-coated magnetic beads to selectively bind biotinylated contents. Bound proteins were separated from unbound proteins through thorough bead washing. Proteins attached to the beads were eluted and analyzed on an Orbitrap Fusion Tribrid mass spectrometer (Thermo Scientific, New York, NY, USA) coupled with an Ultimate 3000 nano-UPLC system. Samples were trapped on a PepMap100 C18 trap column (5 µm, 0.3 × 5 mm) and separated on a PepMap RSLC C18 column (2 µm, 75 µm × 150 mm) using a gradient from 2 to 40% acetonitrile with 0.1% formic acid over 120 min at […] and 40 °C. MS data were acquired in positive mode using data-dependent acquisition (DDA), with precursor scans at 120,000 FWHM (400–2000 m/z), and MS/MS scans in top-speed mode (3 s cycle) using HCD fragmentation (NCE 32%). Proteins were identified and quantified based on peptide spectral matches (PSMs), and fold enrichment compared to controls was calculated to evaluate interaction strength.
(§2) The 5637 and MB49 cells were cultured and treated with higher concentrations of 5c (50 µM) for short period of times (10 min & 60 min) followed by whole cell lysis (WCL) preparation of both treated and untreated cells using modified RIPA buffer [NaCl (100mM), TrisCl (20mM, pH 7.4), EDTA (10 mM), TritonX-100 (0.5%), Glycerol (5%), Protease inhibitor cocktail (1x)] with gentle continuous rotation. The protein content of each WCL was estimated using Pierce™ BCA Protein Assay kit (Thermo-Scientific # 23225). The 100 µL of resuspended Dynabeads™ MyOne™ Streptavidin C1 (Invitrogen # 65001) were washed with PBST (PBS with 0.01% Tween™20) in a magnet stand as recommended in the manufacturer’s instructions. The washed beads were incubated with 200 µg of each WCL in separate tubes at room temperature for 2 h in a gentle end-over-end mixing. After incubation, beads were washed 3–5 times with PBST (0.01% Tween-20) on a magnetic stand and beads were decanted by after spinning and magnetization. The samples were stored at −80 °C till further analysis using LC-MS/MS by the Proteomics and Mass Spectrometry Core Laboratory of Augusta University.

[2] = biological target: RNA-binding protein 39 (RBM39) (Homo sapiens, UniProt Q14498); experiment: as above; conditions: 5637, 50 µM
Chain of RNA-binding protein 39 (RBM39) (Q14498 whole entry): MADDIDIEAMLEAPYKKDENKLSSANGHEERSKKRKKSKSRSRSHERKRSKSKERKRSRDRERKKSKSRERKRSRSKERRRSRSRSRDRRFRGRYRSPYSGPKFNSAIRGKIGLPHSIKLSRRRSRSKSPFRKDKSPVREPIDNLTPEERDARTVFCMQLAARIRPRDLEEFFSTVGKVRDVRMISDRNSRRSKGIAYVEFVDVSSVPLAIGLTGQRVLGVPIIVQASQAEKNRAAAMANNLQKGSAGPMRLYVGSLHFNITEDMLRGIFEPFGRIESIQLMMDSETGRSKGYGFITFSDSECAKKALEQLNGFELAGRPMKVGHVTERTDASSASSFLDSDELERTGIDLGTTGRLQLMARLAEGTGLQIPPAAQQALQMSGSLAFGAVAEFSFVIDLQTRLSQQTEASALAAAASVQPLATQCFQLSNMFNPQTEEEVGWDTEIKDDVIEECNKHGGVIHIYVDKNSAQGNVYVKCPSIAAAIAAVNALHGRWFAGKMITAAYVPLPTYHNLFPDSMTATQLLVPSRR
Description: as §1, §2

[3] = biological target: Elongation factor 1-gamma (EF1γ) (Mus musculus, UniProt Q9D8N0); experiment: Streptavidin pulldown proteomics (LC-MS/MS), MB49 cells; format: binding, murine; conditions: MB-49, 50 µM
Description: as §1, §2

[4] = system: Coiled-coil domain-containing protein; experiment: as above; format: binding, murine; conditions: MB-49, 50 µM
Description: as §1, §2

Histone H2A.Z = Histone H2A.Z (Mus musculus, UniProt P0C0S6); experiment: as above; format: binding, murine; conditions: MB-49, 50 µM
Chain of Histone H2A.Z (P0C0S6 whole entry): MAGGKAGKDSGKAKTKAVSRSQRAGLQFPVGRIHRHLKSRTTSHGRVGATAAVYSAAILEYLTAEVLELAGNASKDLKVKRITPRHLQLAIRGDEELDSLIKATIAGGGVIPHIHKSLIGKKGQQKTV
Description: as §1, §2

[5] = biological target: Elongation factor 1-delta (EF1δ) (Mus musculus, UniProt P57776); experiment: as above; format: binding, murine; conditions: MB-49, 50 µM
Chain of Elongation factor 1-delta (EF1δ) (P57776 whole entry): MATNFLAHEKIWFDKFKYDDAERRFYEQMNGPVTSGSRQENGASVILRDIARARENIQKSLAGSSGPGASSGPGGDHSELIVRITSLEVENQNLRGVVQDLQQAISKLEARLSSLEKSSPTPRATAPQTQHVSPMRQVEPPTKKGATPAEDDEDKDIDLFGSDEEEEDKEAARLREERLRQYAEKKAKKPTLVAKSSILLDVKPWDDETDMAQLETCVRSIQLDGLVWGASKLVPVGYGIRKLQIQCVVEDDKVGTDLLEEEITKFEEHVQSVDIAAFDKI
Description: as §1, §2

DNA topoisomerase = experiment: as above; format: binding, murine; conditions: MB-49, 50 µM
Description: as §1, §2

[6] = biological target: Elongation factor 1-beta (EF1β) (Mus musculus, UniProt O70251); experiment: as above; format: binding, murine; conditions: MB-49, 50 µM
Chain of Elongation factor 1-beta (EF1β) (O70251 whole entry): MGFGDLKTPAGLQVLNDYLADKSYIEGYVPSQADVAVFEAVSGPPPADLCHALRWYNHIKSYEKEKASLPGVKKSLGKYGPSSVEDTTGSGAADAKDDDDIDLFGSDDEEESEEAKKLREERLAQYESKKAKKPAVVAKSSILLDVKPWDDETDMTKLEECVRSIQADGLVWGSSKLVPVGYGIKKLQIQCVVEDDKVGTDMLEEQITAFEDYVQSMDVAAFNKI
Description: as §1, §2

[7] = biological target: Elongation factor 2 (eEF2) (Mus musculus, UniProt P58252); experiment: as above; format: binding, murine; conditions: MB-49, 50 µM
Description: as §1, §2

[8] = system: Splicing factor U2AF 65 kDa subunit (U2AF65); experiment: as above; format: binding, murine; conditions: MB-49, 50 µM
Description: as §1, §2

HSP 90-alpha (HSP90α) = HSP 90-alpha (HSP90α) (Mus musculus, UniProt P07901); experiment: as above; format: binding, murine; conditions: MB-49, 50 µM
Description: as §1, §2

HSP 90-beta (HSP90β) = HSP 90-beta (HSP90β) (Mus musculus, UniProt P11499); experiment: as above; format: binding, murine; conditions: MB-49, 50 µM
Chain of HSP 90-beta (HSP90β) (P11499 whole entry): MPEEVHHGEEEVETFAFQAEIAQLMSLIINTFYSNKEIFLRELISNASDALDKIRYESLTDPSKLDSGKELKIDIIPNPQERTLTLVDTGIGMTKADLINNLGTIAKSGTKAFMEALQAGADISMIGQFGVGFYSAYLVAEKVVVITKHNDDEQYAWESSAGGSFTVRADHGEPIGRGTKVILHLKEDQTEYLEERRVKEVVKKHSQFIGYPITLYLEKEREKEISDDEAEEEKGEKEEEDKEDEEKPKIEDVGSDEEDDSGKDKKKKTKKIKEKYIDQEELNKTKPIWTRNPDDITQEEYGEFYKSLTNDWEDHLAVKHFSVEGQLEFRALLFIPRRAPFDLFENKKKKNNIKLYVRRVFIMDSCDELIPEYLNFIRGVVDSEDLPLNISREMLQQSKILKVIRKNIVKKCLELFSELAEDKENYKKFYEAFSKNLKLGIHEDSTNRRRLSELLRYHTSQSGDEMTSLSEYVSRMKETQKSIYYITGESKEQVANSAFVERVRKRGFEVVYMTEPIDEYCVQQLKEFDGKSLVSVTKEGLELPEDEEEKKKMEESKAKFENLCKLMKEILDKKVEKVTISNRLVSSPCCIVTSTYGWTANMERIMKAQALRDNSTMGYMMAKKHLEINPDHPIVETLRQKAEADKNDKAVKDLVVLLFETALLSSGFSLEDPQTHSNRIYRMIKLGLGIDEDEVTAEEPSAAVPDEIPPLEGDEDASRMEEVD
Description: as §1, §2

ATP synthase subunit O = ATP synthase subunit O (Mus musculus, UniProt Q9DB20); experiment: as above; format: binding, murine; conditions: MB-49, 50 µM
Chain of ATP synthase subunit O (Q9DB20 24-213): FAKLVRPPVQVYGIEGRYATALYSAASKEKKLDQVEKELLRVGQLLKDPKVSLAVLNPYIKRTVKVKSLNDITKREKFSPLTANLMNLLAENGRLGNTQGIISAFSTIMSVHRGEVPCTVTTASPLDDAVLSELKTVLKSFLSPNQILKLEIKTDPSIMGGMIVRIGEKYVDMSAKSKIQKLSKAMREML
Description: as §1, §2

[9] = biological target: Heterogeneous nuclear ribonucleoprotein U (HNRNPU) (Mus musculus, UniProt Q8VEK3); experiment: as above; format: binding, murine; conditions: MB-49, 50 µM
Description: as §1, §2

[10] = biological target: Ribosomal L1 domain-containing protein 1 (RSL1D1) (Mus musculus, UniProt Q8BVY0); experiment: as above; format: binding, murine; conditions: MB-49, 50 µM
Chain of Ribosomal L1 domain-containing protein 1 (RSL1D1) (Q8BVY0 whole entry, the tested form may be a part): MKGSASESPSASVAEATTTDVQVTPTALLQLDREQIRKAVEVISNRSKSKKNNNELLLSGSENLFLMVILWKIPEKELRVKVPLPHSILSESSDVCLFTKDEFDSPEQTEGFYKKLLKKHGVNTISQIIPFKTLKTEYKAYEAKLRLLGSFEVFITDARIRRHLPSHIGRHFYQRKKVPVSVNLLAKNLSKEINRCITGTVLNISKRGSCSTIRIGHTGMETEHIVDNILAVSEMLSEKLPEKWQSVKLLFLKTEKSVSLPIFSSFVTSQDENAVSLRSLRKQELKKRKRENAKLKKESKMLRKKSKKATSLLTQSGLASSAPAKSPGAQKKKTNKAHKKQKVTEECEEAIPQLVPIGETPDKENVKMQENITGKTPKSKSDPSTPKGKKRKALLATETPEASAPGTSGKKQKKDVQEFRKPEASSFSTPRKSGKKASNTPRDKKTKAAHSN
Description: as §1, §2

[11] = biological target: Receptor of activated protein C kinase 1 (RACK1) (Mus musculus, UniProt P68040); experiment: as above; format: binding, murine; conditions: MB-49, 50 µM
Description: as §1, §2

[12] = system: Eukaryotic translation initiation factor 2 (eIF2); experiment: as above; format: binding, murine; conditions: MB-49, 50 µM
Description: as §1, §2

[13] = biological target: Eukaryotic translation initiation factor 5B (eIF5B) (Mus musculus, UniProt Q05D44); experiment: as above; format: binding, murine; conditions: MB-49, 50 µM
Chain of Eukaryotic translation initiation factor 5B (eIF5B) (Q05D44 whole entry): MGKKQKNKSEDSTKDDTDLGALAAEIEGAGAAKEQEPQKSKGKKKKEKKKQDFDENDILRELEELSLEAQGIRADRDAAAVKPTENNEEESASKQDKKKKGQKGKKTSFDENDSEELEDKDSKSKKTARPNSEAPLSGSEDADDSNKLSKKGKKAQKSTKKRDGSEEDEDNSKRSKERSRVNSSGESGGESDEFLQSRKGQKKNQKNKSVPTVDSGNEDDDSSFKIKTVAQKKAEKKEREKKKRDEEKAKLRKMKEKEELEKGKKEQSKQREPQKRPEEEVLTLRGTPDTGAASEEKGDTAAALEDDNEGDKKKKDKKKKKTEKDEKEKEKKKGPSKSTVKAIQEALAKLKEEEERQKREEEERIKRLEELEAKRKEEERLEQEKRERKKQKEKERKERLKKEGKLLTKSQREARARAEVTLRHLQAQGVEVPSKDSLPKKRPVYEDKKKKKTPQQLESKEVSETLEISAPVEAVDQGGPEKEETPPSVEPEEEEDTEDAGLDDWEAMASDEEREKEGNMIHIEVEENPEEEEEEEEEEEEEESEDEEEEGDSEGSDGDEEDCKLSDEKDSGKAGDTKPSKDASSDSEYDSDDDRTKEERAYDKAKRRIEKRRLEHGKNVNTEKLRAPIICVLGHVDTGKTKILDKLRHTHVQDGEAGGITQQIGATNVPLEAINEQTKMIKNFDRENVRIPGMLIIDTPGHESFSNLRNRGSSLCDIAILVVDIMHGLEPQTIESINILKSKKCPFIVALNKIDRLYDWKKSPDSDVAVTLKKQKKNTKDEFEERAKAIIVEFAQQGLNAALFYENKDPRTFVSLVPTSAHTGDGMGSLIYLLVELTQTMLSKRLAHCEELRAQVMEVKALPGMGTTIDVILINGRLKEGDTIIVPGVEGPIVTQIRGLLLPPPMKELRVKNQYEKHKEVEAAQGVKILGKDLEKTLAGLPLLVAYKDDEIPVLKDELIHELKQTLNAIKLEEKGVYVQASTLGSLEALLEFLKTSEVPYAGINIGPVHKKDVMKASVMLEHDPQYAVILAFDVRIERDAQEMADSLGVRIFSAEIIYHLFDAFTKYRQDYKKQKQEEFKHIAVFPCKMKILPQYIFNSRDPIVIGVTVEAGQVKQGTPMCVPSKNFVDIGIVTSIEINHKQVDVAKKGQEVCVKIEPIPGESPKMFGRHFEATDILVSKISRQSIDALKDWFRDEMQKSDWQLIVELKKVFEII
Description: as §1, §2

[14] = system: Eukaryotic initiation factor 4A (eIF4A); experiment: as above; format: binding, murine; conditions: MB-49, 50 µM
Description: as §1, §2

[15] = biological target: D-3-phosphoglycerate dehydrogenase (Mus musculus, UniProt Q61753); experiment: as above; format: binding, murine; conditions: MB-49, 50 µM
Chain of D-3-phosphoglycerate dehydrogenase (Q61753 whole entry): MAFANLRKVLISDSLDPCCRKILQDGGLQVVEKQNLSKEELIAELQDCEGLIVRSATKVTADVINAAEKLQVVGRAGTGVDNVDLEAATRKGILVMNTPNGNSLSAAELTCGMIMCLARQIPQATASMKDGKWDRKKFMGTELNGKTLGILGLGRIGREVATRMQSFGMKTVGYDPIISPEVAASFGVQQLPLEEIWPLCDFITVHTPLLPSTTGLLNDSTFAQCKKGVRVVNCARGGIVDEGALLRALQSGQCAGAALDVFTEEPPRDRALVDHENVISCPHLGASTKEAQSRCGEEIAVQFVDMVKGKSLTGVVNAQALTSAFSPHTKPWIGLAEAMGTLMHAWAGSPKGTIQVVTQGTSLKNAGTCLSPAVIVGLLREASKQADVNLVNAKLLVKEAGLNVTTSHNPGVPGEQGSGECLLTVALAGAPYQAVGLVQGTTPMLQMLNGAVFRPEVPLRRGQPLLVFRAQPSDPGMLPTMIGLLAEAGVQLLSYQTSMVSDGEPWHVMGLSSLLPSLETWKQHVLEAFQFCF
Description: as §1, §2

[16] = biological target: Histone H2A type 2-C (HIST2H2AC) (Mus musculus, UniProt Q64523); experiment: as above; format: binding, murine; conditions: MB-49, 50 µM
Description: as §1, §2

Chain of Poly(U)-binding-splicing factor 60 (PUF60) (Q9UHX1 whole entry, the tested form may be a part): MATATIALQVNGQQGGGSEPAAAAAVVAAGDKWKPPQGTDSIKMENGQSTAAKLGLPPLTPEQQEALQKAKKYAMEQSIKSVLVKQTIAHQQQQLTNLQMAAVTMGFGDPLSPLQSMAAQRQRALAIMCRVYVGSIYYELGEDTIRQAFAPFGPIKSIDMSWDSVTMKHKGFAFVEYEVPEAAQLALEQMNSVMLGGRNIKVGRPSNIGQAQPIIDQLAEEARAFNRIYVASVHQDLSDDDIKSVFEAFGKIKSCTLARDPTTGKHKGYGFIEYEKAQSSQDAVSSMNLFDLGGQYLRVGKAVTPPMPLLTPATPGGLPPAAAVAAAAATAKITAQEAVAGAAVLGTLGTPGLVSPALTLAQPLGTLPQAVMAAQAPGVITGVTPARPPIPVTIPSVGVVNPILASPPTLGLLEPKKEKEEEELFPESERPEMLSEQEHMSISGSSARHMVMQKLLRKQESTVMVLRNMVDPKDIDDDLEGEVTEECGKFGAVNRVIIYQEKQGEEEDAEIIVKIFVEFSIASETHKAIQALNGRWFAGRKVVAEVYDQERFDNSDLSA

Fold Change 10 min/Ctrl [1]: 6
Fold Change 1 h/Ctrl [1]: 5
Fold Change 10 min/Ctrl [2]: 3.5
Fold Change 1 h/Ctrl [2]: 3
Fold Change 1 h/Ctrl [3]: 1
Fold Change 10 min/Ctrl (Histone H2A.Z): 1.86
Fold Change 1 h/Ctrl (Histone H2A.Z): 1.20
Fold Change 10 min/Ctrl [5]: 1.4
Fold Change 1 h/Ctrl [5]: 2
Fold Change 10 min/Ctrl [6]: 5
Fold Change 1 h/Ctrl [6]: 5
Fold Change 10 min/Ctrl [7]: 3
Fold Change 1 h/Ctrl [7]: 2
Fold Change 10 min/Ctrl (HSP 90-alpha (HSP90α)): 1.07
Fold Change 1 h/Ctrl (HSP 90-alpha (HSP90α)): 1.25
Fold Change 10 min/Ctrl (HSP 90-beta (HSP90β)): 1.40
Fold Change 1 h/Ctrl (HSP 90-beta (HSP90β)): 1.71
Fold Change 10 min/Ctrl (ATP synthase subunit O): 4
Fold Change 1 h/Ctrl (ATP synthase subunit O): 5
Fold Change 10 min/Ctrl [9]: 2.38
Fold Change 1 h/Ctrl [9]: 2.13
Fold Change 10 min/Ctrl [10]: 1.33
Fold Change 1 h/Ctrl [10]: 1.56
Fold Change 10 min/Ctrl [11]: 0.88
Fold Change 1 h/Ctrl [11]: 1.29
Fold Change 10 min/Ctrl [13]: 3
Fold Change 1 h/Ctrl [13]: 2.75
Fold Change 10 min/Ctrl [15]: 0.8
Fold Change 1 h/Ctrl [15]: 1.6
Fold Change 10 min/Ctrl [16]: 1.58
Fold Change 1 h/Ctrl [16]: 1.27
SMILES: CC1CCC2(C(=O)OCCCCOC(=O)CCCCC3SCC4NC(=O)NC43)CCC3(C)C(=CCC4C5(C)CCC(O)C(C)(C)C5CCC43C)C2C1C [Compound 5c, 4-((5-((3aS,4S,6aR)-2-Oxohexahydro-1H-thieno [3,4-d]imidazol-4-yl)pentanoyl)oxy) butyl 3-hydroxy-urs-12-en-28-oate]
Fold Change 10 min/Ctrl [4]: 0
Fold Change 1 h/Ctrl [4]: 0
Fold Change 10 min/Ctrl (DNA topoisomerase): 1
Fold Change 1 h/Ctrl (DNA topoisomerase): 1.75
Fold Change 10 min/Ctrl [8]: 4
Fold Change 1 h/Ctrl [8]: 3
Fold Change 10 min/Ctrl [12]: 2
Fold Change 1 h/Ctrl [12]: 0
Fold Change 10 min/Ctrl [14]: 1
Fold Change 1 h/Ctrl [14]: 3
